From patent publication US6555586B2 (Wyeth, priority 1993, dated 2003)

What was measured:
[1] = test system: obesity in non-depressed outpatients; assay: Obesity Reduction Test: randomized double-blind comparison of venlafaxine and placebo capsules; type: in vivo, humans
Experimental: A randomized double-blind comparison of venlafaxine and placebo capsules was tested as a treatment for obesity in non-depressed outpatients. […] Each participant in the comparison weighed more than 20%, but less than 100%, above the mean value for sex, height and bone structure according to the 1983 Metropolitan Height and Weight Table. The women in the comparison of childbearing potential received a negative pregnancy test result and agreed to use medically acceptable forms of contraception throughout the period covered by the comparison.
Subsequently the dose was increased from 50 mg/day to 150 mg/day through study day 14. On study day 15 the dose was increased to 225 mg/day (3 tablets 3 times a day) and this dose was continued for the remainder of the 70 day study. The patients in both groups were also given instructions to decrease their food intake by 20% and to increase their exercise by the same amount. These directives were given to standardize dietary instructions and to try to prevent patients from starting “crash” diets or exercise programs. A specific diet was not prescribed.
Comparisons within groups were performed on changes from baseline weight and body mass index. Body mass index was computed according to the following formula: [formula]

norepinephrine uptake = conditions: cited from earlier work
dopamine reuptake = conditions: relative to serotonin and norepinephrine uptake; cited from earlier work
monoamine oxidase = conditions: cited from earlier work
histaminergic receptors = conditions: in vitro; cited from earlier work
adrenergic receptors = conditions: in vitro; cited from earlier work

COc1ccc(C(CN(C)C)C2(O)CCCCC2)cc1 (centres unmarked) [venlafaxine, 1-[2-(dimethylamino)-1-(4-methoxyphenyl)ethyl] cyclohexanol]
mean weight decreases and mean percent decreases from baseline, significance ([1]; beginning at week 1): consistent statistically significant mean weight decreases and mean percent decreases from baseline beginning at week 1
mean percent decrease from baseline (body weight) ([1]; week 10, venlafaxine up to 225 mg/day): 3.6%
mean decrease in body weight ([1]; week 10, venlafaxine up to 225 mg/day, change from baseline): 7.5 lb
inhibition of norepinephrine uptake (norepinephrine uptake): potent inhibition
inhibition of dopamine reuptake (dopamine reuptake): To a lesser degree, venlafaxine also inhibits dopamine reuptake
inhibitory activity on monoamine oxidase (monoamine oxidase): no inhibitory activity
affinity for histaminergic receptors (histaminergic receptors): virtually no affinity
affinity for adrenergic receptors (adrenergic receptors): virtually no affinity
